The test system of one test is RN4220/pYH4-fabI. Nature of the test: MIC of triclosan against S. aureus RN4220 carrying the fabI ORF clone, with and without inducer. The test is classed as cell-based. Particulars: Staphylococcus aureus, strain RN4220/pYH4-fabI, read-out: MIC concentration of triclosan necessary to inhibit the strain. From the text:
This confirms that FabI is a target of triclosan.
(§1) The pYH4 expression vector was used to clone the FabI ORF and it served as a control for the experiment.

Test [1] has as its system RN4220/pYH4 and RN4220/pYH4-fabI mixed in the ratio of 100:1. Description: Selection of triclosan resistant colonies on TSA plates from a mixed culture. The test is classed as cell-based, S. aureus. The settings on record: approximately 1,000 bacterial cells plated. How it is done:
In the experiment, a S. aureus strain with expression vector (RN4220/pYH4) was combined with the expression vector and FabI open reading frame (RN4220/pYH4-fabI) in the ratio of 100:1. Then, approximately 1,000 bacterial cells of this mixture were plated onto TSA plates containing: (1) no triclosan (-triclosan); (2) 0.25 μg/ml of triclosan; and (3) 0.25 μg/ml of triclosan plus 0.4 μg/ml anhydrotetracycline inducer. […] The third plate was indicative of FabI-containing clones which are confirmed to be targets of the triclosan antimicrobial compound.

The next test deals with RN4220/pYH4. Nature of the test: MIC against S. aureus RN4220 carrying empty expression vector pYH4 (control), with and without inducer. The test is classed as cell-based. As to the method: as §1
(§2) The murA1 ORF is cloned into the pYH4 expression vector, the features of which are described above, and the anhydrotetracycline inducer is added to a sample containing the murA1 ORF. In addition, a control sample containing only the vector is induced and the MICs of the induced and uninduced vector are determined. […] This confirms that murA1 is a target of phosphomycin.
The metRS ORF is cloned into the pYH4 expression vector, the features of which are described above, and the anhydrotetracycline inducer is added to a sample containing the metRS ORF. The MICs for the anitmicrobial compound of induced and uninduced samples are determined. In addition, a control sample containing only the vector is induced and the MICs of the induced and uninduced vector are determined. […] This confirms that metRS is a target of the exemplified antimicrobial compound.

The next test has as its system RN4220/pYH4MurA1. Nature of the test: MIC of phosphomycin against S. aureus RN4220 carrying the murA1 ORF clone, with and without inducer. The test is classed as cell-based. As to the method: as §2

In brackets after ≈: the same amount, converted by molar mass. Read-outs that look alike come from different tables or passages of the source.

Turning to `Oc1cc(Cl)ccc1Oc1ccc(Cl)cc1Cl` [triclosan], the MIC came out at 1 µg/mL with RN4220/pYH4-fabI (+inducer); 0.0625 µg/mL in the test with RN4220/pYH4-fabI (−inducer); 0.0625 µg/mL (≈ 0.216 µM) in the test with RN4220/pYH4 (Staphylococcus aureus, strain RN4220/pYH4, −inducer, read-out: MIC concentration of triclosan necessary to inhibit the strain). Besides, the “colonies grown on TSA plate” value in test [1] (0.25 μg/ml triclosan plus 0.4 μg/ml anhydrotetracycline inducer) is 15 colonies; in test [1] (0.25 μg/ml triclosan, no inducer), “no colonies grew”. Further, the “MIC concentration of triclosan necessary to inhibit the strain” value against RN4220/pYH4 (strain RN4220/pYH4, +inducer) is 0.0625 µg/mL.
On to `C[C@@H]1O[C@@H]1P(=O)(O)O` [phosphomycin], for which, in the test with RN4220/pYH4MurA1 (induced murA1 clone vs uninduced vector), the “MIC of the induced murA1 gene relative to the uninduced vector alone” value is 64 fold. The MIC of phosphomycin in the test with RN4220/pYH4MurA1 (strain RN4220/pYH4MurA1, +ATc) came to 256 µg/mL; in the test with RN4220/pYH4MurA1 (strain RN4220/pYH4MurA1, −Atc) it was 32 µg/mL; in the test with RN4220/pYH4 (strain RN4220/pYH4, +ATc) it was 2 µg/mL; in the test on RN4220/pYH4 (strain RN4220/pYH4, −Atc), 4 µg/mL. Besides, the “MIC of the uninduced murA1 gene relative to the uninduced vector alone” value in the test on RN4220/pYH4MurA1 (uninduced murA1 clone vs uninduced vector) was 8 fold.
